melting point [°C] | SMILES
126.5 to 128 | O=C(/C=C/c1ccccc1)N1CCN(CC(O)c2cc3ccccc3o2)CC1 (centres unmarked) [Compound 1, 1-(2-(benzofuran-2-yl)-2-hydroxy)ethyl-4-cinnamoylpiperazine]
125.5 to 127.5 | O=C(CC(c1ccccc1)c1ccccc1)N1CCN(CC(O)c2cc3ccccc3o2)CC1 (centres unmarked) [Compound 3, 1-(2-(benzofuran-2-yl)-2-hydroxy)ethyl-4-(3,3-diphenylpropionyl)piperazine]
130.5 to 132 | O=C(CC(c1ccccc1)c1ccccc1)N1CCN(C(=O)c2cc3ccccc3o2)CC1 [Compound 4, 1-(benzofuran-2-yl)carbonyl-4-(3,3-diphenylpropionyl)piperazine]
120.5 to 122 | O=C(CC(c1ccccc1)c1ccccc1)N1CCN(Cc2cc3ccccc3o2)CC1 [Compound 6, 1-(benzofuran-2-yl)methyl-4-(3,3-diphenylpropionyl)piperazine]
123.3 to 124.1 | O=C(CC(c1ccccc1)c1ccccc1)N1CCN(CCc2cc3ccccc3o2)CC1 [Compound 7, 1-(2-(benzofuran-2-yl)ethyl)-4-(3,3-diphenylpropionyl)piperazine]
